Measurements taken from patent publication US7122340B2, “Regulatory T cells; methods” (Schering Corporation, priority 2000, dated 2006).

System: naive T cells (CD4+CD62L+)
Experiment: Differentiation of naive CD4+ T cells stimulated with antigen and antigen presenting cells; cytokine profile after restimulation (FACS, secreted cytokines)
Assay type: cell-based, mouse
Conditions: antigen and APC culture of DO11.10 CD4+ T cells
Procedure: IL-2 is present in the culture after the first 3 days of activation. VitD3 is used at 4×10^-8 M (preferably in the range 4×10^-9 M to 4×10^-7 M) while DEX is used at 10^-8M (preferably in the range of 10^-9 M to 10^-7 M).
The cytokine profiles produced by the cells after restimulation are evaluated after 6 h by FACS analysis, while the quantities are accumulated by the respective cell population in 1 ml for 48 h.
DO.11.10 mice transgenic for an ovalbumin323-339 specific αβTCR were used as a source of antigen specific T cells. […] They were backcrossed on to a BALB/C background and (DO11.10×BALB/C)F1 mice were used as the source of T cells in all experiments. BALB/C (Taconics, Germantown, N.Y.) mice were used to provide splenic antigen presenting cells (APC).
Briefly, immunomagnetic depletion of CD8α^+, B220^+, and Mac-1^+ splenocytes was performed using goat anti-rat Ig coated beads (Biomag, PerSeptive Biosystems, Framingham, Mass.). The depleted population was then stained with anti-CD4-FITC and anti-L-selectin-PE and CD4^+ L-selectin^high cells were sorted using a FACStar^Plus cell sorter (Becton-Dickinson, Mountain View, Calif.). […] After 6 days, T cells were harvested, counted, and restimulated at 2.5×10^4 per well in 200 μl in 96 well plates for phenotype analysis by cytokine secretion. […]

SMILES: C=C1/C(=C\C=C2/CCC[C@]3(C)[C@@H]([C@H](C)CCCC(C)(C)O)CC[C@@H]23)C[C@@H](O)C[C@@H]1O [VitD3, 1,25(OH)-Dihydroxyvitamin D3]
- Resulting T cell population / cytokine profile (in words): drive the development of Th2 cells producing high levels of IL-4 and IL-5 and reduced IFN-γ
